Article PMC6287543 (International Journal for Parasitology: Drugs and Drug …, 2018)
Where “and” joins values, the source holds several entries; their conditions need not be identical. Equal values may be shown once. Entries after “also recorded” stand apart in the source; their conditions may differ.

What was measured:
[1] = oral 60 mg/BID over 24 weeks; ref Kim et al., 2017; cited from earlier work
S. mansoni = assay: Murine model of S. mansoni infection: worm burdens recovered by perfusion; type: in vivo, Schistosoma mansoni; conditions: mice; for reduction in female worm burden / reduction in male worm burden: 42 dpi

Cc1c(-c2cnccn2)ssc1=S [Oltipraz]
tolerability [1]: well-tolerated

O=C(C1CCCCC1)N1CC(=O)N2CCc3ccccc3C2C1 (stereo not shown) [PZQ, praziquantel]
efficacy against 21-day-old juvenile parasites (S. mansoni; 100 mg/kg PO QDx4 from 21 dpi, 100 mg/kg): ineffective; also recorded: essentially inactive | reduction in female worm burden (S. mansoni; single oral 200 mg/kg): 97% | reduction in male worm burden (S. mansoni; single oral 200 mg/kg): 78% | reduction in female worm burden (S. mansoni; single oral 400 mg/kg): 100% | reduction in male worm burden (S. mansoni; single oral 400 mg/kg, 400 mg/kg): 100% and 97% | worm kill, juvenile 21 day-old parasites (S. mansoni; single oral doses): zero kill
